According to patent US10183059B2, “Method for treating microbial infection” (GENERAL BIOLOGICALS CORPORATION, priority 2015, dated 2019):

Legend:
[1] = tested on: C. parapsilosis; type: cell-based
Experimental: (§1) The antimicrobial activities against clinical isolates and drug-resistant strains of P-113 and its derived peptides were examined. The present invention evaluated the effect of P-113 on 15 clinical isolates of fungi belonging to the genus Candida (see Table 1). Clinical isolates were cultivated overnight at 30° C. under shaking in a YPD cultural broth (1% yeast extract, 2% peptone and 2% glucose), cells were centrifuged and washed with YPD, then cultivated again in a YPD culture broth allowing to grow for 5 hours (initial optical density at 600 nm [OD600]˜0.5). Cells were washed with PBS and then collected by centrifugation, redissolved in a culture broth (modified RPMI 1640 medium, LYM), the cell concentration was adjusted to ˜0.1 [OD600]/ml and then treated with P-113. After the mixed solution was cultivated under shaking at 37° C. and 5% CO2 for 24 hours, absorbance measurement (OD value) was performed to determine the minimum inhibitory concentration (MIC).

[2] = tested on: C. dubliniensis; type: cell-based
Experimental: as §1

[3] = tested on: Candida albicans strain SC5314 biofilms; assay: Biofilm cell viability, XTT reduction assay; type: cell-based; conditions: biofilm cells, 37° C., 1 hr
Experimental: Candida albicans strain SC5314 was cultivated in a YPD medium overnight and then transferred to a fresh YPD culture broth, diluted until the concentration was 3×10^5 cells/ml. 100 μl of liquid fungal suspension was placed in a 96-well plate for cultivation at 37° C. for 24 hours, formed biofilms were washed with sodium acetate (12.5 mM). Then, sequence-diluted antimicrobial peptides P-113, P-113Du and P-113Tri (0-200 μM) were added, reacted at 37° C. for 1 hour, washed with PBS twice. The cellular activity of the biofilms was determined by using XTT (2,3-bis(2-methoxy-4-nitro-5-sulfophenyl)-2H-tetrazolium-5-carboxanilide) reduction assays to analyze the cell survival rate. To perform this reaction, XTT (0.5 mg/ml) and Menadione (0.5 μM) were dissolved in PBS and then added into a 96-well plate formed by biofilms, reacted at 30° C. for 30 minutes, the optical density was measured at wavelength 490 nm (OD490). The cellular activity of the biofilms was represented as a percentage.

[4] = tested on: och1Δ mutant strain; assay: Susceptibility of och1Δ mutant, CFU; type: cell-based, Candida albicans; conditions: och1Δ versus SN250, 1 h
Experimental: The SN250 and och1Δ mutant strains were grown overnight in YPD broth at 30° C. The overnight culture was then subcultured into fresh YPD medium and grown for 5 h. Cells were treated with different concentration of peptides for 1 h. After treatment, samples were serially diluted in PBS and 15 μl of each diluent was spotted onto YPD agar plates. Colony-forming units were counted after 24 h incubation at 30° C. The data were represented as the mean values±SD of three independent experiments.

[5] = Circular dichroism secondary structure in 85% TFE, BeStSel analysis; type: physicochemical; conditions: CD analyzed by BeStSel
Experimental: The present invention utilized a Circular Dichroism Spectrometer (AVIV Company) to observe the secondary structure of the antimicrobial peptides. Circular dichoism spectra of P-113 and its derivatives were recorded over the wavelength range of 195-260 nm with readings every 1 nm by using a quartz cuvette having 1 mm optical path length. Ellipticities were represented as mean residue molar ellipticity (MRE). P-113, P-113Du and P-113Tri were dissolved in 85% trifluoroethanol (TFE) solution.

[6] = tested on: SC5314 strain of Candida albicans; assay: Effect of cell wall disrupting agents on peptide activity, CFU; type: cell-based; conditions: Proteinase K 1 mg/ml, 30 min
Experimental: The SC5314 strain of Candida albicans (wild type or WT) were grown overnight in YPD broth at 30° C. The overnight culture was then subcultured into fresh YPD medium and grown for 5 h. Cells were treated with Proteinase K (1 mg/ml) for 30 min or Zymolyase (5 mg/ml) for 1 h at 30° C., followed by reacting with different concentrations of the peptides for 1 h, respectively. After that, samples were serially diluted in phosphate-buffered saline (PBS) and 15 μl of each diluent was spotted onto YPD agar plates. Colony-forming units were counted after incubation at 30° C. for 24 h. The data were represented as the mean values±SD of three independent experiments.

[7] = tested on: SC5314 strain of Candida albicans; assay: Intracellular ROS assay (DHE, MitoSOX Red, flow cytometry); type: cell-based; conditions: 0.25 μM, 1 h, 37° C.
Experimental: The SC5314 strain of Candida albicans (wild type or WT) were grown overnight in YPD broth at 30° C. The overnight culture was then subcultured into fresh YPD medium and grown for 5 h. Cells were harvested by centrifugation, washed twice with 12.5 mM sodium acetate (NaOAc) and resuspended in 12.5 mM NaOAc to a concentration of 1*10^7 cells/ml. The cells were treated with various AMPs (0.25 μM) for 1 h at 37° C. After treatment, cells were washed twice with 12.5 mM NaOAc. Dihydroethidium (DHE) is a superoxide indicator, and MitoSOX Red (MitoSOX) was introduced for selective detection of superoxide in the mitochondria of live cells. The intracellular ROS was measured using DHE (20 μM) staining for 30 min and MitoSOX Red (5 μM) for 60 min in PBS. Fluorescent detection was performed by flow cytometry.

[8] = tested on: Wild type (WT) Candida albicans; assay: Candidacidal activity against cell suspension, colony count; type: cell-based; conditions: 37° C., 1 hour
Experimental: Wild type (WT) Candida albicans was cultivated in a YPD medium at 30° C. overnight and then transferred to 5 ml of fresh YPD culture broth, subsequently cultivated for another 5 hours. After being collected by centrifugation, the fungi were washed with sodium acetate (12.5 mM) twice, redissolved with 12.5 mM sodium acetate to yield a fungal concentration of 1.5×10^5 cells/ml. 50 μl of liquid fungal suspension was taken out to be mixed with 50 μl of sequence-diluted antimicrobial peptide and placed in different wells of a 96-well plate, allowing to react (37° C.) for 1 hour (as shown in FIG. 4(A)). Then, 20 μl of fungal liquid mixture was added into 780 μl of PBS to terminate the reaction. Finally, 50 μl was taken out and inoculated on a solid YPD medium, cultivated at 30° C. for 24 hours, then the number of colonies were counted.

[9] = tested on: Wild type (WT) Candida albicans; assay: Salt and pH tolerance of candidacidal activity; type: cell-based
Experimental: Wild type (WT) Candida albicans was cultivated in a YPD medium at 30° C. overnight and then transferred to 5 ml of fresh YPD culture broth, cultivated subsequently for another 5 hours. After the fungi were collected by centrifugation, washed with 12.5 mM sodium acetate twice, redissolved with 12.5 mM NaOAc to yield a fungal concentration of 1.5×10^6 cells/ml. Fifty microliters of liquid fungal suspension was taken out to mix with 50 μl of sequentially diluted antimicrobial peptides and placed in different wells of a 96-well plate allowing to react for 1 hour at 37° C. (as shown in FIG. 4(A). Then, 50 μl of liquid fungal mixture was taken out and 450 μl PBS was added to terminate the reaction. Finally, 25 μl was taken out and inoculated on a solid YPD medium.

[10] = tested on: Staphylococcus aureus; assay: Antimicrobial effect against bacteria (MIC); type: cell-based; conditions: strain ATCC 33591
Experimental: (§2) Wild type (WT) Pseudomonas aeruginosa, Klebsiella pneumoniae, Enterobacter aerogenes, Staphylococcus aureus were cultivated overnight in LB medium at 37° C., then transferred to 5 ml of fresh LB culture broth, cultivated again for another 3 hours. Bacteria were collected by centrifugation, washed with sodium acetate (12.5 mM) twice, redissolved with 12.5 mM sodium acetate until the concentration was 1.5×10^5 cells/ml. Mixed with sequential-diluted anti-bacterial peptides, seeded in different wells of a 96-well plate allowing to react for 1 hour. Then, 20 μl of liquid bacterial mixture was taken out to mix with 780 μl of PBS (Phosphate-buffered saline) to terminate the reaction. 50 μl was then taken out and inoculated on a solid medium, after being cultivated at 30° C. for 24 hours, formed colonies were observed.

[11] = tested on: Klebsiella pneumoniae; assay: Antimicrobial effect against bacteria (MIC); type: cell-based; conditions: strain CG43
Experimental: as §2

[12] = tested on: Enterobacter aerogenes; assay: Antimicrobial effect against bacteria (MIC); type: cell-based; conditions: strain ATCC 13048
Experimental: as §2

[13] = tested on: Pseudomonas aeruginosa; assay: Antimicrobial effect against bacteria (MIC); type: cell-based; conditions: strain PAO1, ATCC 15692
Experimental: as §2

Compound | Minimum Inhibitory Concentration [1] [µg/mL] | Minimum Inhibitory Concentration [2] [µg/mL] | concentration causing 50% reduction in the metabolic activity (50% RMA) [3] [µg/mL] | susceptibility of och1Δ mutant to peptide [4] | content of the α-helical secondary structure [5] [%] | candidacidal activity after proteinase K treatment of cells [6] | ROS-inducing ability, rank among peptides [7] | intracellular ROS formation [7] | activity for killing fungus compared with P-113 [8] | candidacidal activity ([9]; 93.75 mM sodium acetate) | antifungal activity in the high salt environment ([9]; 62.5 and 93.75 mM) | candidacidal activity ([9]; pH 4.5, 6, and 8) | Minimum Inhibitory Concentration (MIC) [10] [µg/mL] | Minimum Inhibitory Concentration (MIC) [11] [µg/mL] | Minimum Inhibitory Concentration (MIC) [12] [µg/mL] | Minimum Inhibitory Concentration (MIC) [13] [µg/mL]
C[C@H](N)C(=O)N[C@@H](CCCCN)C(=O)N[C@@H](CCCNC(=N)N)C(=O)N[C@@H](Cc1c[nH]cn1)C(=O)N[C@@H](Cc1c[nH]cn1)C(=O)NCC(=O)N[C@@H](Cc1ccc(O)cc1)C(=O)N[C@@H](CCCCN)C(=O)N[C@@H](CCCNC(=N)N)C(=O)N[C@@H](CCCCN)C(=O)N[C@@H](Cc1ccccc1)C(=O)N[C@@H](Cc1c[nH]cn1)C(=O)N[C@@H](C)C(=O)N[C@@H](CCCCN)C(=O)N[C@@H](CCCNC(=N)N)C(=O)N[C@@H](Cc1c[nH]cn1)C(=O)N[C@@H](Cc1c[nH]cn1)C(=O)NCC(=O)N[C@@H](Cc1ccc(O)cc1)C(=O)N[C@@H](CCCCN)C(=O)N[C@@H](CCCNC(=N)N)C(=O)N[C@@H](CCCCN)C(=O)N[C@@H](Cc1ccccc1)C(=O)N[C@@H](Cc1c[nH]cn1)C(=O)N[C@@H](C)C(=O)N[C@@H](CCCCN)C(=O)N[C@@H](CCCNC(=N)N)C(=O)N[C@@H](Cc1c[nH]cn1)C(=O)N[C@@H](Cc1c[nH]cn1)C(=O)NCC(=O)N[C@@H](Cc1ccc(O)cc1)C(=O)N[C@@H](CCCCN)C(=O)N[C@@H](CCCNC(=N)N)C(=O)N[C@@H](CCCCN)C(=O)N[C@@H](Cc1ccccc1)C(=O)N[C@@H](Cc1c[nH]cn1)C(N)=O [P-113Tri] | 0.78 | 3.10 | 43.245 | still sensitive | 21.4 | failed to kill C. albicans | strongest ROS-inducing ability | induced intracellular ROS formation | stronger activity for killing fungus than P-113 | potent candidacidal activity | maintained strong antifungal activity | consistent candidacidal activity | 25 | 6.25 | 12.5 | 3.125
LL-37: the control peptide (LLGDFFRKSKEKIGKEFKRIVQRIKDFLRNLVPRTES; Antibacterial peptide LL-37; UniProt P49913 134-170, looked up) [reference compound] | – | – | – | resistant | – | can still kill C. albicans cells | – | – | – | – | – | – | – | – | – | –
C[C@H](N)C(=O)N[C@@H](CCCCN)C(=O)N[C@@H](CCCNC(=N)N)C(=O)N[C@@H](Cc1c[nH]cn1)C(=O)N[C@@H](Cc1c[nH]cn1)C(=O)NCC(=O)N[C@@H](Cc1ccc(O)cc1)C(=O)N[C@@H](CCCCN)C(=O)N[C@@H](CCCNC(=N)N)C(=O)N[C@@H](CCCCN)C(=O)N[C@@H](Cc1ccccc1)C(=O)N[C@@H](Cc1c[nH]cn1)C(=O)N[C@@H](C)C(=O)N[C@@H](CCCCN)C(=O)N[C@@H](CCCNC(=N)N)C(=O)N[C@@H](Cc1c[nH]cn1)C(=O)N[C@@H](Cc1c[nH]cn1)C(=O)NCC(=O)N[C@@H](Cc1ccc(O)cc1)C(=O)N[C@@H](CCCCN)C(=O)N[C@@H](CCCNC(=N)N)C(=O)N[C@@H](CCCCN)C(=O)N[C@@H](Cc1ccccc1)C(=O)N[C@@H](Cc1c[nH]cn1)C(N)=O [P-113Du] | 0.78 | 3.10 | 51.54 | resistant | 10.6 | failed to kill C. albicans | – | induced intracellular ROS formation | stronger activity for killing fungus than P-113 | potent candidacidal activity | – | consistent candidacidal activity | 25 | 12.5 | 25 | 3.125
